Measurements from doi:10.1101/843607v1 (biorxiv, 2019).

Target: T1, Recombinant Mouse Matriptase (Mus musculus, UniProt P56677)
T1 sequence (P56677 615-855 limits assumed): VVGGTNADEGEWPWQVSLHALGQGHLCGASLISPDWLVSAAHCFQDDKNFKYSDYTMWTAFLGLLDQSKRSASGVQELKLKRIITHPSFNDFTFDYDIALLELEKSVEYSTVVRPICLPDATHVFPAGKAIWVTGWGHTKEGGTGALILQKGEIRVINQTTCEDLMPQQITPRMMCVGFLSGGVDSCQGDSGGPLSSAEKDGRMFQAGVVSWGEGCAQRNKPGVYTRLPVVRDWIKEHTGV
Test: fluorogenic AMC release from Boc-QAC-AMC
Type: biochemical

IC50: 0.86 nM
SMILES: N=C(N)c1ccc2cc(OC(=O)c3ccc(N=C(N)N)cc3)ccc2c1 [Nafamostat mesilate]
